The record followed here is patent US6696293B2, “Process for producing carotenoids and biological materials useful therefor” (Roche Vitamins Inc., priority 2000, dated 2004).

This assay relates to P. rhodozyma ATCC 96594. Briefly: Growth of P. rhodozyma colonies on SHAM-containing YPD-agar. The format is cell-based, Phaffia rhodozyma. Particulars: 3 day-cultivation at 20° C.; for Relative colony diameter (%): relative to control colonies without SHAM. Here is the method:
To examine the effects of the inhibition of KCN-resistant respiration mediated by alternative oxidase on the growth of P. rhodozyma, SHAM was added to a culture of P. rhodozyma on YPD-agar medium. SHAM was dissolved in ethanol and added to the YPD-agar medium to give 0.05, 0.15, 0.30, 0.45 and 0.90 mg/ml as a final concentration. After dilution, 2×10^7 cells/ml of P. rhodozyma ATCC 96594 were spread on the media. After a 3 day-cultivation at 20° C., colonies were counted. […] However, the colonies that grew on SHAM-containing media were smaller than the colonies that grew on the control media.

In the case of `O=C(NO)c1ccccc1O` [SHAM, Salicylhydroxamic acid], the “Relative colony diameter (%)” value reads like this: (SHAM 0.05 mg/ml in YPD-agar) 100%; (SHAM 0.15 mg/ml in YPD-agar) 70%; (SHAM 0.30 mg/ml in YPD-agar) 40%; (SHAM 0.45 mg/ml in YPD-agar) 30%; (SHAM 0.90 mg/ml in YPD-agar) 12%. In addition, the “Number of colonies that grew on SHAM-containing YPD agar” value (SHAM 0.05-0.90 mg/ml, compared with control medium without SHAM) is listed as “almost the same as that on control medium”.
